In paper PMC3389674, “Comparison of Soluble Guanylate Cyclase Stimulators and Activators in Models of Cardiovascular Disease Associated with Oxidative Stress” (Frontiers in Pharmacology, 2012):
Read-outs that look alike come from different tables or passages of the source.

Tests used:
[1] = tested on: SHR-SP; test: chronic treatment of SHR-SP on high salt/fat diet: survival, blood pressure, renal and cardiac function; assay type: in vivo, rat; details: for CO (cardiac output) / EDV (end diastolic volume) / EF (ejection fraction) / ESV (end systolic volume) / SV (stroke volume) / LVM/BW (left ventricular mass to body weight ratio): echocardiography after 7 weeks of HSFD; for LVM/BW (left ventricular mass to body weight ratio): HSFD control 3.08 ± 0.06; for survival rate: HSFD control 14%; for MAP: HSFD control 192 ± 10; for effect on MAP compared to the HSFD controls: lower doses: 0.1 mg/kg/day GSK2181236A, 0.3 mg/kg/day BAY 60-4552; for urine output: HSFD control 111 ± 21
Text: The SHR-SP is an established model of genetic hypertension. […] As such, a cohort of HSFD SHR-SP was established as a model of cardiovascular disease associated with chronic oxidative stress in this study.
A subgroup of animals (n = 45) was anesthetized with isoflurane and surgically implanted with radiotelemetry transmitters (PhysioTel PA-C40, Data Sciences International, St. Paul, MN, USA). The transmitter catheter was threaded through the femoral artery into the abdominal aorta. At 11–12 weeks of age, baseline blood pressure and heart rate were measured for 5 days (10 s recordings every 5 min) in normal caging, then rats were acclimated to metabolic caging for a minimum of 48 h before a basal 24 h urine sample and blood were collected. […] The ND group was maintained on normal chow and water throughout the study. […] Rats displaying signs of morbidity which included piloerection, lack of grooming, persistent body weight loss, lethargy, or seizure/convulsions, were promptly euthanized.
Treatments were administered in respective diets starting 1 week after the initiation of HSFD. Urine collections were repeated on weeks 2, 4, 6, and 8 and blood was sampled in the morning after each 24 h collection period for assessment of renal function. Plasma creatinine and urine sodium, microalbumin (MALB), and creatinine were ascertained using an AU640 Chemistry Analyzer (Olympus America, Inc., Center Valley, PA, USA). Plasma compound concentrations were determined as described above.
During week 7, cardiac function and morphometry were evaluated via transthoracic echocardiography. Rats were anesthetized with isoflurane (2–4% induction and 1–3% maintenance). Two-dimensional gray scale images of the left ventricle were obtained in the short axis plane at mid-ventricle level and in the parasternal long axis plane using a GE Vivid 7 system (GE Medical Systems, Milwaukee, WI, USA) and stored as digital cineloops. Pulse wave Doppler recordings from the LV outflow were obtained to determine heart rate. All images were analyzed by a single observer using a GE EchoPac (GE Medical Systems, Milwaukee, WI, USA). LV volumes were calculated as V=5/6(LVA×LVL) where LVA is area of LV chamber from the short axis view and LVL is the LV length from the long axis view at end diastole and end systole. […] Analysis was performed on three to five cardiac cycles.

[2] = tested on: SHR-SP isolated aorta; test: direct vasodilatory effects in aorta isolated from ND and HSFD SHR-SP; parameters: species or system rat; details: for EC50: read-out: EC50, direct vasodilation
Experimental: In separate studies, endothelial function was assessed following chronic (7 week) BAY 60-4552 or GSK2181236A treatment in SHR-SP on HSFD. SHR-SP fed either normal or HSFD served as controls. Rats were anesthetized and thoracic aorta were isolated and treated with KCl and phenylephrine as described above. Cumulative concentration-response curves to phenylephrine were obtained by adding 0.5 log unit increments (1 nM to 3 μM). Following several washes with KHB, each vessel was contracted to equilibrium with 0.3 μM phenylephrine and tone was reversed by adding cumulative amounts of carbachol at 0.5 log unit intervals (10 nM to 30 μM). Following several KHB washes, the tissues were again contracted to equilibrium with 0.3 μM phenylephrine and tone was reversed by adding cumulative amounts of SNP at 0.5 log unit intervals (0.1 nM to 3 μM). In separate tissues from both the normal and HSFD SHR-SP control groups, the direct vasodilatory effects of BAY 60-4552 and GSK2181236A were investigated. Contractile tone induced by 0.3 μM phenylephrine was reversed by adding cumulative concentrations of BAY 60-4552 or GSK2181236A to the tissue baths at log increments (0.1 nM to 10 μM).

[3] = tested on: Sprague Dawley rats; test: radiotelemetry heart rate and blood pressure after single oral dose; assay type: in vivo, rat
Experimental: To identify equi-efficacious doses of GSK2181236A and BAY 60-4552, heart rate and blood pressure were monitored in male Sprague Dawley (SD) rats (∼500g, n = 4–6 per group) via surgically implanted radiotelemetry transmitters (PhysioTel PA-C40, Data Sciences International, St. Paul, MN, USA). Following oral gavage dosing (0.03–3.0 mg/kg), hemodynamic data were recorded every 5 min for 10 s and then averaged every hour.

Cc1cc(-c2ccc(OC(F)(F)F)cc2)ccc1COc1ccccc1-c1cccc(-n2ncc(C(=O)O)c2C(F)(F)F)n1 [GSK2181236A, 1-(6-{2-[({3-methyl-4′-[(trifluoromethyl)oxy]-4-biphenylyl}methyl)oxy]phenyl}-2-pyridinyl)-5-(trifluoromethyl)-1H-pyrazole-4-carboxylic acid]
reduction of MAP compared to HSFD controls ([1]; 1.0 mg/kg/day for 7 week, not significant): 9 mmHg
MALB excretion vs HSFD controls ([1]; 0.1 and 1.0 mg/kg/day): did not alter
sodium excretion vs HSFD controls ([1]; 0.1 and 1.0 mg/kg/day): did not alter
urine output vs HSFD controls ([1]; 0.1 and 1.0 mg/kg/day): did not alter
CO (cardiac output) ([1]; HSFD + 0.1 mg/kg/day): 76 ± 7 mL/min
EDV (end diastolic volume) ([1]; HSFD + 0.1 mg/kg/day): 331 ± 29 µL
EF (ejection fraction) ([1]; HSFD + 0.1 mg/kg/day): 67 ± 2%
ESV (end systolic volume) ([1]; HSFD + 0.1 mg/kg/day): 110 ± 11 µL
SV (stroke volume) ([1]; HSFD + 0.1 mg/kg/day): 222 ± 19 µL
LVM/BW (left ventricular mass to body weight ratio) ([1]; HSFD + 0.1 mg/kg/day): 2.69 ± 0.08 mg/g
CO (cardiac output) ([1]; HSFD + 1.0 mg/kg/day): 80 ± 5 mL/min
EDV (end diastolic volume) ([1]; HSFD + 1.0 mg/kg/day): 332 ± 22 µL
EF (ejection fraction) ([1]; HSFD + 1.0 mg/kg/day): 71 ± 1%
ESV (end systolic volume) ([1]; HSFD + 1.0 mg/kg/day): 98 ± 10 µL
SV (stroke volume) ([1]; HSFD + 1.0 mg/kg/day): 234 ± 14 µL
LVM/BW (left ventricular mass to body weight ratio) ([1]; HSFD + 1.0 mg/kg/day): 2.82 ± 0.07 mg/g
survival ([1]; HSFD, 0.1 mg/kg/day for 7 week): did not improve survival
survival rate ([1]; HSFD, 1.0 mg/kg/day for 7 week): 69%
MAP ([1]; HSFD, 1.0 mg/kg/day for 7 week): 183 ± 7 mmHg
effect on MAP compared to the HSFD controls [1]: did not have any effect on MAP
EC50 ([2]; Rattus norvegicus, aorta from HSFD SHR-SP): 321 ± 168 nM
EC50 ([2]; Rattus norvegicus, aorta from ND SHR-SP): 270 ± 70 nM
Emax, direct vasodilation ([2]; aorta from HSFD SHR-SP): 110 ± 7 % vasodilation
Emax, direct vasodilation ([2]; aorta from ND SHR-SP): 110 ± 3 % vasodilation
lowering of mean arterial pressure (MAP) ([3]; high dose): 5–10 mmHg
potency on heart rate and blood pressure, more potent than BAY 60-4552 ([3]; rat, in vivo): ~3 fold
doses that increased heart rate and reduced blood pressure ([3]; single p.o. dose): ≥ 0.3 mg/kg
highest no-effect dose on heart rate and blood pressure ([3]; single p.o. dose): 0.1 mg/kg

COC(=O)Nc1c(N)nc(-c2nn(Cc3ccccc3F)c3ncccc23)nc1N [BAY 60-4552]
reduction of MAP compared to HSFD controls ([1]; 3 mg/kg/day for 7 weeks, P > 0.05): 17 mmHg
CO (cardiac output) ([1]; HSFD + 0.3 mg/kg/day): 86 ± 6 mL/min
EDV (end diastolic volume) ([1]; HSFD + 0.3 mg/kg/day): 356 ± 21 µL
EF (ejection fraction) ([1]; HSFD + 0.3 mg/kg/day): 69 ± 2%
ESV (end systolic volume) ([1]; HSFD + 0.3 mg/kg/day): 111 ± 11 µL
SV (stroke volume) ([1]; HSFD + 0.3 mg/kg/day): 245 ± 14 µL
LVM/BW (left ventricular mass to body weight ratio) ([1]; HSFD + 0.3 mg/kg/day): 3.06 ± 0.07 mg/g
CO (cardiac output) ([1]; HSFD + 3.0 mg/kg/day): 89 ± 6 mL/min
EDV (end diastolic volume) ([1]; HSFD + 3.0 mg/kg/day): 379 ± 21 µL
EF (ejection fraction) ([1]; HSFD + 3.0 mg/kg/day): 67 ± 1%
ESV (end systolic volume) ([1]; HSFD + 3.0 mg/kg/day): 120 ± 9 µL
SV (stroke volume) ([1]; HSFD + 3.0 mg/kg/day): 259 ± 13 µL
LVM/BW (left ventricular mass to body weight ratio) ([1]; HSFD + 3.0 mg/kg/day): 2.85 ± 0.10 mg/g
survival rate ([1]; HSFD, 0.3 mg/kg/day for 7 week): 46%
urine output ([1]; HSFD, 0.3 mg/kg/day for seven weeks): 79 ± 11 mL/day
survival rate ([1]; HSFD, 3 mg/kg/day for 7 week): 69%
MAP ([1]; HSFD, 3 mg/kg/day for 7 weeks): 175 ± 1 mmHg
urine output ([1]; HSFD, 3.0 mg/kg/day for seven weeks): 56 ± 10 mL/day
sodium excretion ([1]; HSFD, 3.0 mg/kg/day, HSFD control 26.4 ± 2.2): 16 ± 2 mmol/day
MALB excretion ([1]; HSFD, 3.0 mg/kg/day, HSFD control 282.4 ± 20.2): 142 ± 42 mg/day
effect on MAP compared to the HSFD controls [1]: did not have any effect on MAP
Emax, direct vasodilation ([2]; aorta from HSFD SHR-SP): 111 ± 2 % vasodilation
EC50 ([2]; aorta from HSFD SHR-SP): 54 ± 14 nM
Emax, direct vasodilation ([2]; aorta from ND SHR-SP): 110 ± 2 % vasodilation
EC50 ([2]; aorta from ND SHR-SP): 75 ± 16 nM
potency on heart rate and blood pressure, less potent than GSK2181236A ([3]; rat, in vivo): approximately threefold
highest no-effect dose on heart rate and blood pressure ([3]; single p.o. dose): 0.3 mg/kg
